Laboratory results taken from patent US20230183193A1, “4-DIFLUOROMETHYL BENZOYL AMIDES WITH HERBICIDAL ACTION” (BAYER CROPSCIENCE AKTIENGESELLSCHAFT, priority 2017, published 2023).

What was measured:
Type in all cases: in vivo
Matricaria inodora = experiment: Pre-emergence herbicidal action, MATIN; settings: dosage 320 g/ha, scored visually after 3 weeks vs untreated controls
How it was run: (§1)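 Weed seeds were laid out in sandy loam and covered with soil, then the soil surface was treated with an aqueous suspension or emulsion of the formulated compound containing 0.2% wetting agent. Pots stayed in the greenhouse for 3 weeks before damage was rated visually against untreated plants.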

Pharbitis purpureum = experiment: Post-emergence herbicidal action, PHBPU; settings: 80 g/ha, Table D
How it was run: (§2)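 Post-emergence spray; one-leaf stage (2–3 wk after sowing), sandy loam, greenhouse. WP/EC in water, 600 to […], +0.2% wetting agent. Visual % damage vs untreated at ~3 wk; 100% = plants dead.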

Cyperus serotinus = experiment: Pre-emergence herbicidal action, CYPES; settings: dosage 320 g/ha, scored visually after 3 weeks vs untreated controls
How it was run: as §1

Setaria viridis [1] = experiment: Post-emergence herbicidal action, SETVI; settings: 80 g/ha, Table C
How it was run: as §2

Stellaria media [2] = experiment: Post-emergence herbicidal action, STEME; settings: 80 g/ha, Table D
How it was run: as §2

Alopecurus myosuroides [3] = experiment: Pre-emergence herbicidal action, ALOMY; settings: dosage 320 g/ha, scored visually after 3 weeks vs untreated controls
How it was run: as §1

Alopecurus myosuroides [4] = experiment: Post-emergence herbicidal action, ALOMY; settings: 80 g/ha, Table C
How it was run: as §2

ECHCG = experiment: Post-emergence herbicidal action, ECHCG; settings: 80 g/ha, Table C
How it was run: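 Weed and crop plants grown in sandy loam in the greenhouse, treated at the one-leaf stage 2–3 weeks after sowing. Damage scored visually after about 3 weeks vs untreated controls (0% = control, 100% = dead).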

Viola tricolor [5] = experiment: Pre-emergence herbicidal action, VIOTR; settings: dosage 320 g/ha, scored visually after 3 weeks vs untreated controls
How it was run: as §1

Stellaria media [6] = experiment: Pre-emergence herbicidal action, STEME; settings: dosage 320 g/ha, scored visually after 3 weeks vs untreated controls
How it was run: as §1

Amaranthus retroflexus [7] = experiment: Pre-emergence herbicidal action, AMARE; settings: dosage 320 g/ha, scored visually after 3 weeks vs untreated controls
How it was run: as §1

Avena fatua [8] = experiment: Pre-emergence herbicidal action, AVEFA; settings: dosage 320 g/ha, scored visually after 3 weeks vs untreated controls
How it was run: as §1

Abutilon theophrasti [9] = experiment: Post-emergence herbicidal action, ABUTH; settings: 80 g/ha, Table D
How it was run: as §2

Amaranthus retroflexus [10] = experiment: Post-emergence herbicidal action, AMARE; settings: 80 g/ha, Table D
How it was run: as §2

Viola tricolor [11] = experiment: Post-emergence herbicidal action, VIOTR; settings: 80 g/ha, Table D
How it was run: as §2

Setaria viridis [12] = experiment: Pre-emergence herbicidal action, SETVI; settings: dosage 320 g/ha, scored visually after 3 weeks vs untreated controls
How it was run: as §1

Avena fatua [13] = experiment: Post-emergence herbicidal action, AVEFA; settings: 80 g/ha, Table C
How it was run: as §2

Abutilon theophrasti [14] = experiment: Pre-emergence herbicidal action, ABUTH; settings: dosage 320 g/ha, scored visually after 3 weeks vs untreated controls
How it was run: as §1

SMILES | herbicidal activity MATIN (Matricaria inodora) [%] | Herbicidal activity PHBPU (Pharbitis purpureum) [%] | herbicidal activity CYPES (Cyperus serotinus) [%] | herbicidal activity SETVI (Setaria viridis [1]) [%] | Herbicidal activity STEME (Stellaria media [2]) [%] | herbicidal activity ALOMY (Alopecurus myosuroides [3]) [%] | herbicidal activity ALOMY (Alopecurus myosuroides [4]) [%] | Herbicidal activity ECHCG (ECHCG) [%] | herbicidal activity VIOTR (Viola tricolor [5]) [%] | Herbicidal activity STEME (Stellaria media [6]) [%] | herbicidal activity AMARE (Amaranthus retroflexus [7]) [%] | herbicidal activity AVEFA (Avena fatua [8]) [%] | herbicidal activity ABUTH (Abutilon theophrasti [9]) [%] | herbicidal activity AMARE (Amaranthus retroflexus [10]) [%] | herbicidal activity VIOTR (Viola tricolor [11]) [%] | herbicidal activity SETVI (Setaria viridis [12]) [%] | herbicidal activity AVEFA (Avena fatua [13]) [%] | herbicidal activity ABUTH (Abutilon theophrasti [14]) [%]
CCc1c(C(=O)Nc2nnc(C)o2)ccc(C(F)F)c1S(=O)(=O)CC [Example 7-16] | 100 | 90 | 100 | 100 | 100 | 100 | 90 | 90 | 100 | 100 | 100 | 100 | 100 | 100 | 100 | 100 | 90 | 100
CCSc1c(C(F)F)ccc(C(=O)Nc2nnnn2CC)c1C1CC1 [Example 2-28] | 100 | 100 | 100 | 100 | 100 | 100 | 90 | 100 | 100 | 100 | 100 | 100 | 100 | 100 | 100 | 100 | 100 | 100
CCc1c(C(=O)Nc2nnnn2C)ccc(C(F)F)c1SC [Example 1-13] | 100 | 100 | 100 | 90 | 100 | 100 | 90 | 90 | 100 | 100 | 100 | 100 | 100 | 100 | 100 | 100 | 100 | 100
CCn1nnnc1NC(=O)c1ccc(C(F)F)c(S(C)(=O)=O)c1Br [Example 2-63] | 100 | 100 | 90 | 100 | 100 | 100 | 100 | 100 | 100 | 100 | 100 | 100 | 100 | 100 | 100 | 100 | 100 | 100
CCS(=O)(=O)c1c(C(F)F)ccc(C(=O)Nc2nnnn2C)c1C [Example 1-6] | 100 | 100 | 100 | 100 | 100 | 100 | 100 | 100 | 100 | 100 | 100 | 100 | 90 | 100 | 100 | 100 | 100 | 100
CCn1nnnc1NC(=O)c1ccc(C(F)F)c(S(=O)(=O)CC)c1C [Example 2-6] | 100 | 100 | 100 | 90 | 100 | 100 | 80 | 90 | 100 | 100 | 100 | 100 | 100 | 90 | 100 | 100 | 100 | 100
CCSc1c(C(F)F)ccc(C(=O)Nc2nnnn2C)c1Cl [Example 1-52] | 100 | 100 | 90 | 90 | 100 | 100 | 100 | 90 | 100 | 100 | 100 | 100 | 100 | 100 | 100 | 100 | 100 | 100
Cn1nnnc1NC(=O)c1ccc(C(F)F)c(S(C)(=O)=O)c1Br [Example 1-63] | 100 | 100 | 100 | 100 | 100 | 100 | 90 | 90 | 100 | 100 | 100 | 100 | 100 | 100 | 100 | 100 | 100 | 100
CCn1nnnc1NC(=O)c1ccc(C(F)F)c(SC)c1Br [Example 2-61] | 100 | 100 | 100 | 90 | 100 | 100 | 90 | 90 | 100 | 100 | 100 | 100 | 100 | 90 | 100 | 100 | 90 | 100
CSc1c(C(F)F)ccc(C(=O)Nc2nnc(C)o2)c1Cl [Example 7-47] | 100 | 90 | 80 | 100 | 100 | 90 | 80 | 100 | 100 | 90 | 100 | 90 | 90 | 90 | 100 | 100 | 100 | 100
CCc1c(C(=O)Nc2nnc(C)o2)ccc(C(F)F)c1[S+](C)[O-] (stereo not drawn) [Example 7-12] | 100 | 90 | 100 | 90 | 100 | 100 | 90 | 100 | 100 | 100 | 100 | 100 | 100 | 100 | 100 | 100 | 90 | 100
